According to patent US20150246093A1, “ORAL FORMULATIONS OF ANGIOTENSIN” (TARIX PHARMACEUTICALS LTD., priority 2012, published 2015):
“And” between values parts separate entries of the source, which are not always exact repeats. Equal entries are not always repeated. Where two headings read alike, the source gives them in different places.

Test: Pharmacokinetics after subcutaneous (SC) administration of angiotensin (1-7) in PBS, plasma LC-MS
Assay type: in vivo, female Sprague-Dawley rats
Conditions: for AUC(0-t): read-out: AUC0-90 (converted)
Description: Initially, a baseline pharmacokinetic profile in female Sprague-Dawley rats was obtained by subcutaneous (SC) administration of angiotensin (1-7) in phosphate buffered saline (PBS). […]
After extraction, the samples were then transferred to ice-cold tubes containing a protease inhibitor cocktail. The samples were kept on ice until they were centrifuged at 4° C. to obtain plasma. The plasma supernatants were then frozen −70° C. until analysis using an LC-MS assay.
Table 1 summarized exemplary individual baseline A(1-7) levels achieved at the designated time points and the non-compartmental PK values. Three rats were administered 0.3 mL of 10 mg/mL A(1-7) as a subcutaneous injection. The pharmacokinetics of A(1-7) were determined using a non-compartmental model, where individual pharmacokinetics were determined. The mean concentration for each time point was calculated and the PK values for these mean values were estimated. The Tmax was achieved approximately 10 to 90 minutes after administration. Half-lives are approximately 15 minutes for this treatment group. Total mean A(1-7) exposure over the observation period was 614 ng*min/mL with a range of 585 to 656 ng*min/mL.

[1] = SC 0.3 mL of 10 mg/mL A(1-7) in PBS, individual rats

Which “Total mean A(1-7) exposure over the observation period” value (0.3 mL of 10 mg/mL A(1-7) subcutaneous injection, three rats) does the source give for CC[C@H](C)[C@H](NC(=O)[C@H](Cc1ccc(O)cc1)NC(=O)[C@@H](NC(=O)[C@H](CCCNC(=N)N)NC(=O)[C@@H](N)CC(=O)O)C(C)C)C(=O)N[C@@H](Cc1c[nH]cn1)C(=O)N1CCC[C@H]1C(=O)O [Angiotensin (1-7), Asp^1-Arg^2-Val^3-Tyr^4-Ile^5-His^6-Pro^7] here?
Its value is 614 ng·min/mL.

What about the AUC0-90 [1] of the same compound?
Its AUC0-90 is 598.1 ng·min/mL and 656.1 ng·min/mL.

What about the Cmax [1] of the same compound?
The Cmax was 15.7 ng/mL and 17.4 ng/mL.

And the Half-Life [1]?
The Half-Life was 15.58 min.

What about the “Angiotensin (1-7) concentration” value (SC 0.3 mL of 10 mg/mL A(1-7) in PBS, time point 0 min (before injection), individual rats) of the same compound?
The value was 0.121 ng/mL and 10.2 ng/mL and 1.41 ng/mL.

And the “Angiotensin (1-7) concentration” value (SC 0.3 mL of 10 mg/mL A(1-7) in PBS, time point 5 min, individual rats)?
Its value is 0.120 ng/mL and 7.47 ng/mL and 4.37 ng/mL.

What about the “Angiotensin (1-7) concentration” value (SC 0.3 mL of 10 mg/mL A(1-7) in PBS, time point 10 min, individual rats) of the same compound?
The value was 18.6 ng/mL and 0.94 ng/mL and 1.09 ng/mL.

And the “Angiotensin (1-7) concentration” value (SC 0.3 mL of 10 mg/mL A(1-7) in PBS, time point 20 min, individual rats)?
The value was 6.25 ng/mL and 15.7 ng/mL and 5.71 ng/mL.

And the “Angiotensin (1-7) concentration” value (SC 0.3 mL of 10 mg/mL A(1-7) in PBS, time point 40 min, individual rats)?
The value was 15.30 ng/mL and 6.38 ng/mL and 4.47 ng/mL.

What about the “Angiotensin (1-7) concentration” value (SC 0.3 mL of 10 mg/mL A(1-7) in PBS, time point 60 min, individual rats) of the same compound?
Its value is 1.03 ng/mL and 2.65 ng/mL and 7.46 ng/mL.

What about the “Angiotensin (1-7) concentration” value (SC 0.3 mL of 10 mg/mL A(1-7) in PBS, time point 90 min, individual rats) of the same compound?
Its value is 1.14 ng/mL and 6.59 ng/mL and 17.4 ng/mL.

What about the level at 0 h (female, Sprague-Dawley, rat, plasma, 3 mg, SC 0.3 mL of 10 mg/mL A(1-7) in PBS, time point 0 min (before injection), Average, read-out: Angiotensin (1-7) concentration) of the same compound?
Its level at 0 h is 4.5 ng/mL.

And the level at 5 min (female, Sprague-Dawley, rat, plasma, 3 mg, SC 0.3 mL of 10 mg/mL A(1-7) in PBS, time point 5 min, Average, read-out: Angiotensin (1-7) concentration)?
Its level at 5 min is 3.99 ng/mL.

And the level at 10 min (female, Sprague-Dawley, rat, plasma, 3 mg, SC 0.3 mL of 10 mg/mL A(1-7) in PBS, time point 10 min, Average, read-out: Angiotensin (1-7) concentration)?
The level at 10 min was 6.88 ng/mL.

And the level at 20 min (female, Sprague-Dawley, rat, plasma, 3 mg, SC 0.3 mL of 10 mg/mL A(1-7) in PBS, time point 20 min, Average, read-out: Angiotensin (1-7) concentration)?
The level at 20 min was 9.22 ng/mL.

What about the level at 40 min (female, Sprague-Dawley, rat, plasma, 3 mg, SC 0.3 mL of 10 mg/mL A(1-7) in PBS, time point 40 min, Average, read-out: Angiotensin (1-7) concentration) of the same compound?
The level at 40 min was 8.72 ng/mL.

What about the level at 1 h (female, Sprague-Dawley, rat, plasma, 3 mg, SC 0.3 mL of 10 mg/mL A(1-7) in PBS, time point 60 min, Average, read-out: Angiotensin (1-7) concentration) of the same compound?
The level at 1 h was 3.71 ng/mL.

What about the level at 1.5 h (female, Sprague-Dawley, rat, plasma, 3 mg, SC 0.3 mL of 10 mg/mL A(1-7) in PBS, time point 90 min, Average, read-out: Angiotensin (1-7) concentration) of the same compound?
Its level at 1.5 h is 8.38 ng/mL.

And the Tmax (female, Sprague-Dawley, rat, plasma, sc, 3 mg, 0.3 mL of 10 mg/mL A(1-7) subcutaneous injection, three rats, range over the group, read-out: Tmax after administration)?
The Tmax was 10 to 90 min.

And the Half-Life (female, Sprague-Dawley, rat, plasma, sc, 3 mg, 0.3 mL of 10 mg/mL A(1-7) subcutaneous injection, three rats, read-out: Half-lives)?
The Half-Life was about 15 min.

And the AUC(0-t) (female, Sprague-Dawley, rat, plasma, sc, 3 mg, SC 0.3 mL of 10 mg/mL A(1-7) in PBS, Average (PK value of the mean concentrations))?
The AUC(0-t) was 10.2 ng·h/mL.

What about the Cmax (female, Sprague-Dawley, rat, plasma, sc, 3 mg, SC 0.3 mL of 10 mg/mL A(1-7) in PBS, Average (PK value of the mean concentrations), read-out: Cmax) of the same compound?
The Cmax was 9.2 ng/mL.

And the Tmax (female, Sprague-Dawley, rat, plasma, sc, 3 mg, SC 0.3 mL of 10 mg/mL A(1-7) in PBS, Average (PK value of the mean concentrations), read-out: Tmax (converted))?
Its Tmax is 20 min.

What about the AUC(0-t) (female, Sprague-Dawley, rat, plasma, sc, 3 mg, SC 0.3 mL of 10 mg/mL A(1-7) in PBS, Mean PK Value (average of individual PK parameters)) of the same compound?
The AUC(0-t) was 10.2 ng·h/mL.

What about the Cmax (female, Sprague-Dawley, rat, plasma, sc, 3 mg, SC 0.3 mL of 10 mg/mL A(1-7) in PBS, Mean PK Value (average of individual PK parameters), read-out: Cmax) of the same compound?
Its Cmax is 17.2 ng/mL.

What about the Half-Life (female, Sprague-Dawley, rat, plasma, sc, 3 mg, SC 0.3 mL of 10 mg/mL A(1-7) in PBS, Mean PK Value (average of individual PK parameters), read-out: Half-Life) of the same compound?
Its Half-Life is 15.1 min.

What about the Tmax (female, Sprague-Dawley, rat, plasma, sc, 3 mg, SC 0.3 mL of 10 mg/mL A(1-7) in PBS, Mean PK Value (average of individual PK parameters), read-out: Tmax (converted)) of the same compound?
Its Tmax is 40 min.

And the AUC(0-t) (female, Sprague-Dawley, rat, plasma, sc, 3 mg, SC 0.3 mL of 10 mg/mL A(1-7) in PBS, individual rats)?
The AUC(0-t) was 9.72 ng·h/mL.

And the Cmax (female, Sprague-Dawley, rat, plasma, sc, 3 mg, SC 0.3 mL of 10 mg/mL A(1-7) in PBS, individual rats, read-out: Cmax)?
Its Cmax is 18.6 ng/mL.

And the Half-Life (female, Sprague-Dawley, rat, plasma, sc, 3 mg, SC 0.3 mL of 10 mg/mL A(1-7) in PBS, individual rats, read-out: Half-Life)?
The Half-Life was 15 min.
